Experiments:
[1] = target: von Hippel-Lindau disease tumor suppressor/Epidermal growth factor receptor (Homo sapiens, UniProt P00533+P40337); assay: Protac activity at VHL/wildtype EGFR in human OVCAR-8 cells assessed as degradation of wild type EGFR incubated for 24 hrs by immunoblot assay; type: cell-based
MCF7 [2] = assay: Antiproliferative activity against human MCF7 cells assessed as inhibition of cell growth measured after 5 days by PrestoBlue cell viability assay; type: functional, cell-based; settings: MCF7, 120 h
[3] = target: Protein cereblon/Protein deacetylase HDAC6 (Homo sapiens, UniProt Q96SW2+Q9UBN7); assay: Protac activity at CRBN/HDAC6 in human MM1.S assessed as degradation of HDAC6 incubated for 6 hrs by ELISA; type: cell-based
BaF3 = assay: Antiproliferative activity against mouse BaF3 cells harboring EGFR L858R/T790M mutant assessed as cell growth inhibition incubated for 72 hrs; type: functional, cell-based; settings: BaF3, 72 h
[4] = target: Protein cereblon/Cyclin-dependent kinase 4 (Homo sapiens, UniProt P11802+Q96SW2); assay: Protac activity at CRBN/CDK4 in human MDA-MB-231 cells; type: cell-based
Sequence of Protein cereblon/Cyclin-dependent kinase 4 (P11802 whole entry): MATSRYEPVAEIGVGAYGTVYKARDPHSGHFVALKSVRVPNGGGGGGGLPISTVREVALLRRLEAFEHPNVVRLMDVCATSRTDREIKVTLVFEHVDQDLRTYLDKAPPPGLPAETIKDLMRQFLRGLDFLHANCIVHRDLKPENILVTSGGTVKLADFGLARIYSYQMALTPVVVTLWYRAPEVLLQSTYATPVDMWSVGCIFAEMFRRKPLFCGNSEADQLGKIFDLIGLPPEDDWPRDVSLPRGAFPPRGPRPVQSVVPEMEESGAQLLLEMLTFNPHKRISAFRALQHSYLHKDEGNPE
Sequence of Protein cereblon/Cyclin-dependent kinase 4 (Q96SW2 whole entry): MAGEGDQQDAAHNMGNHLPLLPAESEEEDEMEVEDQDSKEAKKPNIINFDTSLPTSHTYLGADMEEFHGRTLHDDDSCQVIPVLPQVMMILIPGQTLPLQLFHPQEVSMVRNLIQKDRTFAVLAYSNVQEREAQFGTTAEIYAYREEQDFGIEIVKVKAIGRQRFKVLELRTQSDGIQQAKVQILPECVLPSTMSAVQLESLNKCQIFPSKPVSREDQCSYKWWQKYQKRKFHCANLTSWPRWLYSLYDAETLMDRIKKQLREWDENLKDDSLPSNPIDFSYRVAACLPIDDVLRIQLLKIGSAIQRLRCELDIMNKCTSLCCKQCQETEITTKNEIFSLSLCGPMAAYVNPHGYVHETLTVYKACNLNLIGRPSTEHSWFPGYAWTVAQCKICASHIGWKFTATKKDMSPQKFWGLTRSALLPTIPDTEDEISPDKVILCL

[5] = target: T1, von Hippel-Lindau disease tumor suppressor/GTPase KRas (Homo sapiens, UniProt P01116+P40337, G12C); assay: Protac activity at VHL/KRAS G12C mutant in human SW1573 cells assessed as degradation of KRAS G12C mutant incubated for 24 hrs by immunoblot assay; type: cell-based
T1 sequence (P01116 whole entry G12C, stated change not applied): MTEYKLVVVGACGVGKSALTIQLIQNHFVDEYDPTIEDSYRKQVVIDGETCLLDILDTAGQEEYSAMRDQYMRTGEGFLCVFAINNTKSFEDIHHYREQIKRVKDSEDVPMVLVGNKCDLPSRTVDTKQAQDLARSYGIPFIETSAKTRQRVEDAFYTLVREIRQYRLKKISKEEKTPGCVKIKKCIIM
T1 sequence (P40337 whole entry, stated change not applied): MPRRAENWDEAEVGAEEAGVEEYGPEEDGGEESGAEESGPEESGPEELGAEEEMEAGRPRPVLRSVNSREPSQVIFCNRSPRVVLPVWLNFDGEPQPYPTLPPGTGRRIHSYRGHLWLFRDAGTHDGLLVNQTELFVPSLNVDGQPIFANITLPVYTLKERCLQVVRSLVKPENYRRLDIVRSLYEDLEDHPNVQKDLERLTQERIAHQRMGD

[6] = target: T1, von Hippel-Lindau disease tumor suppressor/GTPase KRas; assay: Protac activity at VHL/KRAS G12C mutant in human NCI-H358 cells assessed as degradation of KRAS G12C mutant incubated for 24 hrs by immunoblot assay; type: cell-based
[7] = target: T1, von Hippel-Lindau disease tumor suppressor/GTPase KRas; assay: Protac activity at VHL/KRAS G12C mutant in human MIA PaCa-2 cells assessed as degradation of KRAS G12C mutant incubated for 24 hrs by immunoblot assay; type: cell-based
[8] = target: T1, von Hippel-Lindau disease tumor suppressor/GTPase KRas; assay: Protac activity at VHL/KRAS G12C mutant in human NCI-H2030 cells assessed as degradation of KRAS G12C mutant incubated for 24 hrs by immunoblot assay; type: cell-based
[9] = target: T1, von Hippel-Lindau disease tumor suppressor/GTPase KRas; assay: Protac activity at VHL/KRAS G12C mutant in human NCI-H23 cells assessed as degradation of KRAS G12C mutant incubated for 24 hrs by immunoblot assay; type: cell-based
[10] = target: Protein fem-1 homolog B/Bromodomain-containing protein 4 (Homo sapiens, UniProt O60885+Q9UK73); assay: Protac activity at FEM1B/BRD4 in human HEK293T cells assessed as degradation of BRD4 incubated for 8 hrs by Western blot analysis; type: cell-based
[11] = target: Protein cereblon/Cyclin-dependent kinase 6 (Homo sapiens, UniProt Q00534+Q96SW2); assay: Protac activity at CRBN/CDK6 in human MDA-MB-231 cells; type: cell-based
Sequence of Protein cereblon/Cyclin-dependent kinase 6 (Q00534 whole entry): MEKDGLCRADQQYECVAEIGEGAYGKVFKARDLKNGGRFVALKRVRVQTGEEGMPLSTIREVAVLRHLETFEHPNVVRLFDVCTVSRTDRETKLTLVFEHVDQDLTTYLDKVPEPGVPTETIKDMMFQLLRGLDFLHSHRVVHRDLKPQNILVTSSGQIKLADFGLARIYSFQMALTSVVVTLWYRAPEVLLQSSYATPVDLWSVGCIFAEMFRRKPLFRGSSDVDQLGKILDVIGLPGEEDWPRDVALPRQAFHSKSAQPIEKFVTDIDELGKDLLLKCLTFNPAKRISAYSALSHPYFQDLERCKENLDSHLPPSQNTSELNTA
Sequence of Protein cereblon/Cyclin-dependent kinase 6 (Q96SW2 whole entry): as the sequence (Q96SW2 whole entry) above

[12] = target: T2, von Hippel-Lindau disease tumor suppressor/Bromodomain-containing protein 3 (Homo sapiens, UniProt P40337+Q15059); assay: Protac activity at VHL/BRD3 in human HeLa cells assessed as degradation of BRD3 incubated for 24 hrs by Western blotting analysis; type: cell-based
T2 sequence (Q15059 whole entry): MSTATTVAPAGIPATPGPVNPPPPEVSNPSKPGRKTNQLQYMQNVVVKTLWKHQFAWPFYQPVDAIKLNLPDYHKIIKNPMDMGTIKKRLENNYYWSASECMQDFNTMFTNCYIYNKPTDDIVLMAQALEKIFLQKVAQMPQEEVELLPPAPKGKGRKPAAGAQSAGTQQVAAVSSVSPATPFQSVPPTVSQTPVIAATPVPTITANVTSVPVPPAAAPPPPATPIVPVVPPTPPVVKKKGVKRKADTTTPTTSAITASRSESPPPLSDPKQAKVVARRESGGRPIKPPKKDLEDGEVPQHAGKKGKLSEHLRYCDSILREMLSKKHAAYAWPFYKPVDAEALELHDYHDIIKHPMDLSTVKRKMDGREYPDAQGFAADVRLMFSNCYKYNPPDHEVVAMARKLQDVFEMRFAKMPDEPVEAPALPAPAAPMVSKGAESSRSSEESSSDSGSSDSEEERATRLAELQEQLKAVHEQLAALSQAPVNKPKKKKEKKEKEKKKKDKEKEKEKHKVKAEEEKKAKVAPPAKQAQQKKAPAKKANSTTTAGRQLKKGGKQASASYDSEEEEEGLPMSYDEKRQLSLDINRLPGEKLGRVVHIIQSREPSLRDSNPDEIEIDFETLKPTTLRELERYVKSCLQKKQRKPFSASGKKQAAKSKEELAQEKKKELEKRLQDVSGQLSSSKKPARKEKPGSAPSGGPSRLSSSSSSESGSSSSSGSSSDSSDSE
T2 sequence (P40337 whole entry): as the sequence (P40337 whole entry, stated change not applied) above

[13] = target: T3, von Hippel-Lindau disease tumor suppressor/Bromodomain-containing protein 4 (Homo sapiens, UniProt O60885+P40337); assay: Protac activity at VHL/BRD4 in human HeLa cells assessed as degradation of BRD4 incubated for 24 hrs by Western blotting analysis; type: cell-based
T3 sequence (P40337 whole entry, looked up, other chains not shown): as the sequence (P40337 whole entry, stated change not applied) above

[14] = target: T4, von Hippel-Lindau disease tumor suppressor/Bromodomain-containing protein 2 (Homo sapiens, UniProt P25440+P40337); assay: Protac activity at VHL/BRD2 in human HeLa cells assessed as degradation of BRD2 incubated for 24 hrs by Western blotting analysis; type: cell-based
T4 sequence (P25440 whole entry): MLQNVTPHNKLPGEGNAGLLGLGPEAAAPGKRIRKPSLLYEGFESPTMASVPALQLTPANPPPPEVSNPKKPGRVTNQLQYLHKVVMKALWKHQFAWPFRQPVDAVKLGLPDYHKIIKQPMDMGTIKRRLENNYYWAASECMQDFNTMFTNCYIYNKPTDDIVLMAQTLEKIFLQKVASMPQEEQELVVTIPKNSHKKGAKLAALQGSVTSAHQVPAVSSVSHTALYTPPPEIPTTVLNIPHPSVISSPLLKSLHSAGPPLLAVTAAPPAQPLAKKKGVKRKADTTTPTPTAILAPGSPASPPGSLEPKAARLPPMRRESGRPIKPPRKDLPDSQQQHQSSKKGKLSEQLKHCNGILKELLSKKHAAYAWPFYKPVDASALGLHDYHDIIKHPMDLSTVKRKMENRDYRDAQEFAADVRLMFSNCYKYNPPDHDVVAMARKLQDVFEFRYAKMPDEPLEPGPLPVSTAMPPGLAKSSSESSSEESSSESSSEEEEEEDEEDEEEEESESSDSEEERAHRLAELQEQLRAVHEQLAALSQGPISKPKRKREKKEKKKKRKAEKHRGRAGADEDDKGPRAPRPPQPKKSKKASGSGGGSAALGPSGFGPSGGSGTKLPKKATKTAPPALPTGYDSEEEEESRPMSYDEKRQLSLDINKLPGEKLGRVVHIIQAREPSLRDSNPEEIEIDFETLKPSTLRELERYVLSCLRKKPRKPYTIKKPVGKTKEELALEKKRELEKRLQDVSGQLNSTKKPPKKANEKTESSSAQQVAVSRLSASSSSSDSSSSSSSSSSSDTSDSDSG
T4 sequence (P40337 whole entry): as the sequence (P40337 whole entry, stated change not applied) above

MV4-11 = assay: Antiproliferative activity against human MV4-11 cells incubated for 48 to 72 hrs by celltiter-glo luminescent cell viability assay; type: functional, cell-based
HeLa = assay: Antiproliferative activity against human HeLa cells; type: functional, cell-based
T47D = assay: Antiproliferative activity against human T47D cells; type: functional, cell-based
OVCAR-8 = assay: Antiproliferative activity against human OVCAR-8 cells; type: functional, cell-based
[15] = target: von Hippel-Lindau disease tumor suppressor/Cyclin-dependent kinase 6 (Homo sapiens, UniProt P40337+Q00534); assay: Protac activity at VHL/CDK6 in human MM1.S cells assessed as degradation of CDK6 incubated for 16 hrs by immunoblot assay; type: cell-based
Sequence of von Hippel-Lindau disease tumor suppressor/Cyclin-dependent kinase 6 (Q00534 whole entry): as the sequence (Q00534 whole entry) above
Sequence of von Hippel-Lindau disease tumor suppressor/Cyclin-dependent kinase 6 (P40337 whole entry): as the sequence (P40337 whole entry, stated change not applied) above

MM1.S = assay: Antiproliferative activity against human MM1.S cells incubated for 72 hrs by MTS assay; type: functional, cell-based
NCI-H358 = assay: Antiproliferative activity against human NCI-H358 cells assessed as inhibition of cell growth incubated for 5 days by celltiter-glo luminescent cell viability assay; type: functional, cell-based; settings: NCI-H358, 120 h
[16] = target: von Hippel-Lindau disease tumor suppressor/Estrogen receptor (Homo sapiens, UniProt P03372+P40337); assay: Protac activity at VHL/ER alpha in human MCF7 cells assessed as degradation of ER alpha incubated for 6 hrs by Western blot analysis; type: cell-based
MCF7 [17] = assay: Antiproliferative activity against human MCF7 cells assessed as cell growth inhibition incubated for 6 days with media replacement for every 2 to 3 days by MTT assay; type: functional, cell-based
[18] = target: T3, von Hippel-Lindau disease tumor suppressor/Bromodomain-containing protein 4; assay: Protac activity at VHL/BRD4 in human HCT-116 cells assessed as degradation of BRD4 incubated for 24 hrs by immunoblot assay; type: cell-based
LNCaP = assay: Antiproliferative activity against human LNCaP cells; type: functional, cell-based
[19] = target: Androgen receptor (Homo sapiens) (UniProt P10275); assay: Binding affinity to androgen receptor (unknown origin) at 10 uM relative to control
[20] = target: Protein cereblon/GTPase KRas (Homo sapiens, UniProt P01116+Q96SW2, G12C); assay: Protac activity at CRBN/KRAS G12C mutant in human NCI-H358 cells assessed as degradation of KRAS G12C mutant; type: cell-based
[21] = target: von Hippel-Lindau disease tumor suppressor/Histone deacetylase 3 (Homo sapiens, UniProt O15379+P40337); assay: Protac activity at VHL/HDAC3 in human MDA-MB-468 assessed as degradation of HDAC3 incubated for 14 hrs by Western blot analysis; type: cell-based
[22] = Cytotoxicity against HEK293 cells assessed as inhibition of cell growth; type: toxicity, cell-based; settings: human
[23] = target: T3, von Hippel-Lindau disease tumor suppressor/Bromodomain-containing protein 4; assay: Protac activity at VHL/BRD4 in HEK293 cells assessed as degradation of BRD4 incubated for 4 hrs by Western blot analysis; type: cell-based
[24] = target: T2, von Hippel-Lindau disease tumor suppressor/Bromodomain-containing protein 3; assay: Protac activity at VHL/BRD3 in HEK293 cells assessed as degradation of BRD3 incubated for 4 hrs by Western blot analysis; type: cell-based
[25] = target: T4, von Hippel-Lindau disease tumor suppressor/Bromodomain-containing protein 2; assay: Protac activity at VHL/BRD2 in HEK293 cells assessed as degradation of BRD2 incubated for 4 hrs by Western blot analysis; type: cell-based
[26] = target: Protein cereblon/Bromodomain-containing protein 4 (Homo sapiens, UniProt O60885+Q96SW2); assay: Protac activity at CRBN/BRD4 (unknown origin); type: protein assay

## Cc1ncsc1-c1ccc(CNC(=O)[C@@H]2C[C@@H](O)CN2C(=O)[C@@H](NC(=O)COCCOCCOCCOc2ccc(-c3ccc4ncnc(Nc5ccc(OCc6cccc(F)c6)c(Cl)c5)c4c3)cc2)C(C)(C)C)cc1
[1]
  EC50: 39.2 nM

## CCN(CCCCCCCC(=O)NC(C(=O)N1C[C@@H](O)C[C@@H]1C(=O)N[C@H](C)c1ccc(-c2scnc2C)cc1)C(C)(C)C)CCOc1ccc(C(=O)c2c(-c3ccc(O)cc3)sc3cc(O)ccc23)cc1 (stereo not given in full)
MCF7 [2]
  IC50: 0.8 nM

## O=C(CCCCCCC(=O)N/N=C/c1ccc(OCCCC#Cc2cccc3c2CN(C2CCC(=O)NC2=O)C3=O)cc1)NO (stereo not given)
[3]
  EC50: 1.9 nM

## O=C1CCC(N2C(=O)c3cccc(NCCOCCOCCOCCN4CCN(c5ccc(-c6ccc7c(c6)C(=O)N(C(C(=O)Nc6nccs6)c6ccccc6)C7)cn5)CC4)c3C2=O)C(=O)N1 (stereo not given)
BaF3
  IC50: 96 nM

## CN(C)C(=O)c1cn(C2CCCC2)c2cnc(Nc3ccc(N4CCN(c5cn(CCCCCNc6cccc7c6C(=O)N(C6CCC(=O)NC6=O)C7=O)nn5)CC4)cn3)nc12 (stereo not given)
[4]
  EC50: 97 nM

## C=C(F)C(=O)N1CCN(c2nc(O[C@@H]3CCCN3CCCOCCC(=O)N[C@H](C(=O)N3C[C@H](O)C[C@H]3C(=O)NCc3ccc(-c4scnc4C)cc3)C(C)(C)C)nc3c2CCN(c2cccc4cccc(Cl)c24)C3)C[C@H]1CC#N
[5]
  EC50: 250 nM
[6]
  EC50: 250 nM
[7]
  EC50: 250 nM
[8]
  EC50: 250 nM
[9]
  EC50: 250 nM

## C#CCCN(C(=O)CCl)c1ccc2c(c1)OCCN2CC(=O)NCCCCNC(=O)C[C@@H]1N=C(c2ccc(Cl)cc2)c2c(sc(C)c2C)-n2c(C)nnc21
[10]
  EC50: 250 nM

## CC(=O)C1=C(O)N(C2CCCC2)c2nc(Nc3ccc(N4CCN(Cc5cn(CCCCCNc6cccc7c6C(=O)N(C6CCC(=O)NC6=O)C7=O)nn5)CC4)cn3)ncc2C1C (stereo not given)
[4]
  EC50: 12.9 nM
[11]
  EC50: 34.1 nM

## Cc1ncsc1-c1ccc2c(c1)OCCOCCO[C@H](NC(=O)C[C@@H]1N=C(c3ccc(Cl)cc3)c3c(sc(C)c3C)-n3c(C)nnc31)COCCOCCOCC(=O)N[C@H](C(C)(C)C)C(=O)N1C[C@@H](O)C[C@@H]1C(=O)NC2
[12]
  EC50: > 125 nM
[13]
  EC50: 25 nM
[14]
  EC50: > 125 nM
MV4-11
  EC50: 300 nM

## Cc1ncsc1-c1ccc(CNC(=O)[C@@H]2C[C@@H](OC(=O)CCCCn3cc(NC(=O)CC[C@@H](NC(=O)c4ccc(NCc5cnc6nc(N)[nH]c(=O)c6n5)cc4)C(=O)O)nn3)CN2C(=O)[C@@H](NC(=O)COCCCOCCNC(=O)C[C@@H]2N=C(c3ccc(Cl)cc3)c3c(sc(C)c3C)-n3c(C)nnc32)C(C)(C)C)cc1
HeLa
  IC50: 246 nM
T47D
  IC50: 18 nM
OVCAR-8
  IC50: 297 nM

## CC(=O)C1=C(O)N(C2CCCC2)c2nc(Nc3ccc(N4CCN(CCOCCOCCOc5cc(-c6scnc6C)ccc5CNC(=O)[C@@H]5C[C@@H](O)CN5C(=O)C(NC(=O)C5(F)CC5)C(C)(C)C)CC4)cn3)ncc2C1C (stereo not given in full)
[15]
  EC50: 5.1 nM

## Nc1ccccc1NC(=O)c1ccc(COc2cccc3c2CN(C2CCC(=O)NC2=O)C3=O)cc1 (stereo not given)
MM1.S
  IC50: 43 nM

## C=CC(=O)N1CCN(c2nc(NCCCN3CCN(CCCNc4cccc5c4C(=O)N(C4CCC(=O)NC4=O)C5=O)CC3)nc3cc(Cl)c(-c4cc(O)cc5ccccc45)c(F)c23)CC1 (stereo not given)
NCI-H358
  IC50: 510 nM

## Cc1ncsc1-c1ccc([C@@H](C)NC(=O)[C@H]2C[C@H](O)CN2C(=O)[C@H](NC(=O)CCCCOc2ccc(CCNC(=O)c3ccc(C(=O)c4c(-c5ccc(O)cc5)sc5cc(O)ccc45)cc3)cc2)C(C)(C)C)cc1
[16]
  EC50: 1.1 nM
MCF7 [17]
  IC50: 13.2 nM

## COc1cc(C(=O)NCCOCCOCCOCCNC(=O)C[C@@H]2N=C(c3ccc(Cl)cc3)c3c(sc(C)c3C)-n3c(C)nnc32)ccc1NC(=O)[C@@H]1N[C@@H](CC(C)(C)C)[C@](C#N)(c2ccc(Cl)cc2F)[C@H]1c1cccc(Cl)c1F
[18]
  EC50: 23.1 nM

## CC1(C)C(=O)N(c2ccc(C#N)c(C(F)(F)F)c2)C(=S)N1COCCOCCOn1cc(CCCCCC(=O)CC23CC4CC(CC(C4)C2)C3)nn1
LNCaP
  IC50: 1750 nM
[19]
  Activity: 82.6%

## COc1cc(Cl)c(-c2cc(Cl)ccc2Cl)cc1C(=O)N1CCN(C(=O)/C=C/C(=O)NCCCCCCNc2cccc3c2C(=O)N(C2CCC(=O)NC2=O)C3=O)CC1 (stereo not given)
[20]
  EC50: 1250 nM

## CCCNNC(=O)c1ccc(-c2ccc(NC(=O)CCCCCCC(=O)NC(C(=O)N3C[C@@H](O)C[C@@H]3C(=O)N[C@H](C)c3ccc(-c4scnc4C)cc3)C(C)(C)C)cc2)cc1 (stereo not given in full)
[21]
  EC50: 42 nM

## Cc1ncsc1-c1ccc(CNC(=O)[C@H]2C[C@H](O)CN2C(=O)[C@H](NC(=O)COCC(C)(COCCOCCOCCNC(=O)C[C@H]2N=C(c3ccc(Cl)cc3)c3c(sc(C)c3C)-n3c(C)nnc32)COCCOCCOCCNC(=O)C[C@H]2N=C(c3ccc(Cl)cc3)c3c(sc(C)c3C)-n3c(C)nnc32)C(C)(C)C)cc1
[22]
  IC50: 1.1 nM
[23]
  EC50: 0.7 nM
[24]
  EC50: 3.3 nM
[25]
  EC50: 1.1 nM

## Cc1sc2c(c1C)C(c1ccc(Cl)cc1)=N[C@@H](CC(=O)NCCCCCNC(=O)COc1ccc(C3CCC(=O)NC3=O)cc1)c1nnc(C)n1-2 (stereo not given in full)
[26]
  EC50: 0.87 nM

Source: ChEMBL document CHEMBL5247611, “A bibliometric analysis of PROTAC from 2001 to 2021” (Eur J Med Chem, 2022)
